For the assay, the system named is DLD-1 parental cells. Nature of the assay: Cell growth inhibition assay (CellTiter-Glo), DLD-1 parental. The class given is cell-based. Particulars: Homo sapiens, DLD-1, 168 h; 7 days, CellTiter Glo 2.0. From the text:
The objective of this study is to evaluate the effect of compound disclosed herein on cell proliferation through the cell viability assay in DLD-1 BRCA2(−/−) and parental isogenic pair and MDA-MB-436 (mutated BRCA1) cell lines. The CellTiter-Glo (CTG) based cell viability assay is designed to determine the number of viable cells in the culture because of compound effect, by quantifying ATP, which indicates the presence of metabolically active cells.
DLD-1 BRCA2(−/−) and parental isogenic pair were cultured in RPMI 1640 supplemented with 10% fetal bovine serum (FBS), and MDA-MB-436 cells were cultured in DMEM supplemented with 10% FBS. Both are culture at 37° C. with 5% CO2. Invention compounds were distributed to the 384 well plate (Corning, 3764) using Echo acoustic liquid handler to form a 1:3 serially diluted final concentration with top dose of 10 or 30 μM. The cells were seeded into the plate in the density of 50 cells/well (DLD-1 parental), 200 cells/well (DLD-1 BRCA2−/−), or 500 cells/well (MDA-MB-436). After a short spun, the cells were cultured in a well moisturized incubator at 37° C. with 5% CO2 for 7 days without disturbance. The cell viability was measured by CellTiter Glo 2.0 assay kit (Promega, G9243), and growth inhibition rate was calculated and plotted against final compound concentration, and the data were fitted in Xfit to generate IC50.

A value given as a limit tells only on which side of the number the result lay.

In the case of `[2H]C([2H])([2H])NC(=O)c1ccc(N2CCN(Cc3ccc4c5c(c(=O)[nH]c4c3F)CCO5)CC2)c(F)n1` [Example 22], the EC50 is > 30 µM.

For the origin of these results see patent US20230348473A1, “SUBSTITUTED PYRIDINES AS PARP1 INHIBITORS” (Xinthera, Inc., priority 2022, published 2023).
